The structures appear in SMILES notation.

The results in this text go back to patent US11207320B2, “Compositions and methods for cancer expressing PDE3A or SLFN12” (The Broad Institute, Inc., priority 2015, dated 2021).

One assay has as its target T1, PDE3A and SLFN12 (Homo sapiens, UniProt Q14432).
T1 construct: Endogenous PDE3A was immunoprecipitated; host or cells: HeLa
The experiment in a line: Validation of DNMDP-induced PDE3A protein interactions using immunoprecipitation and immunoblotting. It counts as cell-based. The note with it: for PDE3A and SLFN12 complex formation: FIG. 20, affinity reagents, immunoblot; for complex formation of V5-tagged SIRT7 and SLFN12 with PDE3A: HeLa, 10 μM, 4 hours, coimmunoprecipitation (FIG. 19). The protocol: FIG. 19 is an immunoblot showing that DNMDP induces interaction between PDE3A and SIRT7 and SLFN12 in HeLa cells. HeLa cells were transfected with indicated plasmids and treated with indicated compounds with a final concentration of 10 μM for four hours. Endogenous PDE3A was immunoprecipitated and immunoblotted for V5 to identify novel interaction with SIRT7 and SLFN12 (upper two panels). Immunoprecipitate input was immunoblotted for PDE3A and V5 (lower two panels). V5-SLFN12 was undetectable in whole cell lysate.
FIG. 20 is an immunoblot showing confirmation of mass spectrometric results herein using affinity reagents.
HeLa cells were transfected with ORF overexpression constructs expressing V5-tagged SIRT7, V5-tagged SLFN12, or V5-tagged GFP. ORF expression constructs were obtained from the TRC (clone IDs: TRCN0000468231, TRCN0000476272, ccsbBroad304_99997). At 72 hours post transfection, cells were treated with 10 μM DNMDP or trequinsin for 4 hours followed by lysis using the ModRipa lysis buffer and immunoprecipitation of PDE3A. For each condition, 2 mg total protein lysate was incubated with 1 μg of anti-PDE3A antibody at 4° C. overnight, after which 7.5 μl each of Protein A- and Protein G-Dynabeads (Life Technologies 10001D and 10003D) were added and incubated for another 1 hour. Beads were washed and bound proteins were eluted with 30 μl of LDS PAGE gel loading buffer. Input (˜60 μg total protein lysate) and IP products were resolved on 4-12% Tris-Glycine PAGE gels and immunoblotted with an anti-V5 antibody (Life Technologies R96205, 1:5000), the Bethyl anti-PDE3A antibody (1:1000), and secondary antibodies from LiCOR Biosciences (Cat.#926-32210 and 926068021, each at 1:10,000). Blots were washed and imaged using a LiCOR Odyssey infrared imager.
Background: Immunoblotting shows a protein as a band on a membrane.

The target of a further assay is T2, PDE3A(677-1141) (Homo sapiens, UniProt Q14432).
T2 construct: purified PDE3A catalytic domain, PDE3A(677-1141)
Put plainly: Differential scanning fluorimetry (DSF) binding. The settings on record: 5 μM protein, 100 μM compound. The protocol:
Binding buffer: 20 mM Hepes pH 7.4, 100 μM TCEP, 1 mM MgCl2, 150 mM NaCl.
(In general: Differential scanning fluorimetry follows unfolding on heating by fluorescence.)

For another assay, the target named is PDE3A (Homo sapiens, UniProt Q14432). The experiment in a line: Immunoprecipitation of PDE3A in HeLa cells with iTRAQ/MS proteomics. More on the design: Immunoprecipitation of endogenous PDE3A in HeLa cells; endogenous in cells; host or cells: HeLa. The settings on record: 10 μM, four hours. The text has this: The dependence of 6-(4-(diethylamino)-3-nitrophenyl)-5-methyl-4,5-dihydropyridazin-3(2H)-one (DNMDP) cytotoxicity on phosphodiesterase 3A (PDE3A) protein abundance indicated a possible mechanism similar to that recently observed for lenalidomide, which acts by a neomorphic or hypermorphic mechanism by stabilizing an interaction between cereblon and IKAROS Family Zinc Finger 1 (IKZF1) and IKZF3 (Krönke et al., Science 343, 301-305, 2014; Lu et al., Science 343, 305-309, 2014). […] The protein complexes in which PDE3A resides were characterized under normal conditions, and it was examined how these complexes change when PDE3A is bound to DNMDP or the non-cytotoxic PDE3 inhibitor trequinsin. PDE3A and interacting proteins from Hela cells were immunoprecipitated in the presence of DNMDP and trequinsin followed by labeling with isobaric stable isotope tags for relative abundance and quantitation by mass spectrometry (iTRAQ/MS, FIG. 13A). […]
Desalted peptides were labeled with isobaric tags for relative and absolute quantification (iTRAQ)-reagents according to the manufacturer's instructions (AB Sciex, Foster City, Calif.). […]
Reconstituted peptides were separated on an online nanoflow EASY-NLC™ 1000 UHPLC system (Thermo Fisher Scientific) and analyzed on a benchtop Orbitrap Q EXACTIVE™ mass spectrometer (Thermo Fisher Scientific). […]

T2 sequence (Q14432 677-1141): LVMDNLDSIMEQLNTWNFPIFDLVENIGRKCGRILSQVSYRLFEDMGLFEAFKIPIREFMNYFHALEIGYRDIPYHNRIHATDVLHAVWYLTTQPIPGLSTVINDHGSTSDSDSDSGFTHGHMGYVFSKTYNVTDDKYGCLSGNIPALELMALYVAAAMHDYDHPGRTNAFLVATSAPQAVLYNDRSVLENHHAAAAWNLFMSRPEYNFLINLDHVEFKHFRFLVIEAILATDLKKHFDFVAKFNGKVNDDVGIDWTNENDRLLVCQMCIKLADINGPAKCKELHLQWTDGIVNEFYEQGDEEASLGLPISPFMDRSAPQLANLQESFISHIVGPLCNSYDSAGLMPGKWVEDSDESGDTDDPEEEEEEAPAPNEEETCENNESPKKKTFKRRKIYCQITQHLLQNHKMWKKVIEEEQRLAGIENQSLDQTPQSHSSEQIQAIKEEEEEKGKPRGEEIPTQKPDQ
T1 sequence (Q14432 whole entry): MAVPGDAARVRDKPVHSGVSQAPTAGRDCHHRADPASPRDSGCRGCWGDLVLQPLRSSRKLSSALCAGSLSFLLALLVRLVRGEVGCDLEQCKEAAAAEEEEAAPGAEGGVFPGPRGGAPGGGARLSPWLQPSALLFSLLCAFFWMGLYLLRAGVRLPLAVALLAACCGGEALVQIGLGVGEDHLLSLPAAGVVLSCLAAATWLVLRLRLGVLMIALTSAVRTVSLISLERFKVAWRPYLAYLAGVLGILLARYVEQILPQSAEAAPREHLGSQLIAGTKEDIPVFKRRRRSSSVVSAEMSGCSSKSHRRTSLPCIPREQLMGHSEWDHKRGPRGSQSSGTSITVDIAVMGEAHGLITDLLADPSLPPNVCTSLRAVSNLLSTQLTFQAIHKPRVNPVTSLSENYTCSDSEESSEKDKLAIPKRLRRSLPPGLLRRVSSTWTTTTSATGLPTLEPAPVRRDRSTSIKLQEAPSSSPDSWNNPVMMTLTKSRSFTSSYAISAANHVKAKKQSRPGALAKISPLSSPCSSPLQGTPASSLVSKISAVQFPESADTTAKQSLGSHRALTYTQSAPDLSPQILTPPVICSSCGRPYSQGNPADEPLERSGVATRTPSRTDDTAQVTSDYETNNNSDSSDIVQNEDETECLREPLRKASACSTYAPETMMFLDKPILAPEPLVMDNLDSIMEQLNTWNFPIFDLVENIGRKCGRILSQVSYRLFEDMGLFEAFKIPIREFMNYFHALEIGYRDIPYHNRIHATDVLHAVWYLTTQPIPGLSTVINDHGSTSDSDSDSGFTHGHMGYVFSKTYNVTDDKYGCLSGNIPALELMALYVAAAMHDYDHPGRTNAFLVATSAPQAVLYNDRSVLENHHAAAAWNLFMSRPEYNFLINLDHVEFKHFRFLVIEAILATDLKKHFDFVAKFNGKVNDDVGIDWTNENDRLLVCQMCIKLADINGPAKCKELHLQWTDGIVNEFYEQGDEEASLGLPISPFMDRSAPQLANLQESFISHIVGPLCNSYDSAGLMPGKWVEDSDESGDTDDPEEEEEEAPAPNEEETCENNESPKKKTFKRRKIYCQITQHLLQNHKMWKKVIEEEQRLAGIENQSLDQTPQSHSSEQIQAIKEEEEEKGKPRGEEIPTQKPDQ
T1 sequence (Q8IYM2 whole entry partner): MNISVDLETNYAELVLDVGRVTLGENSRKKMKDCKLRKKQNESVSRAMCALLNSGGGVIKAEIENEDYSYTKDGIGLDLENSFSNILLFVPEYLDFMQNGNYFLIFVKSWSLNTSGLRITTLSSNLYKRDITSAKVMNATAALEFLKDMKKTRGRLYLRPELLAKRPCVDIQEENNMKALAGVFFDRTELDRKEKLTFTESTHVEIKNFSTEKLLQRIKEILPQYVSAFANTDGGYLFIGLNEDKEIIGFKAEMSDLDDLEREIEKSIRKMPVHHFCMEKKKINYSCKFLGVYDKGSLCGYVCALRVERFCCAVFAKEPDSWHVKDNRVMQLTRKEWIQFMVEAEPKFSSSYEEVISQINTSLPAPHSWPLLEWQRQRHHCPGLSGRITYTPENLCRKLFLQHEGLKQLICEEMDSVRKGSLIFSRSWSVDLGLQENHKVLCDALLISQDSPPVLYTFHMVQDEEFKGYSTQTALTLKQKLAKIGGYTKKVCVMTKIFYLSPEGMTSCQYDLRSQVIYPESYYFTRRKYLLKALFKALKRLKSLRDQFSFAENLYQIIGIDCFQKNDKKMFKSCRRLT
Chain of PDE3A (Q14432 whole entry): as the sequence (Q14432 whole entry) above

For `CCN(CC)c1ccc(C2=NNC(=O)CC2C)cc1[N+](=O)[O-]` (stereo not shown) [DNMDP, 6-(4-(diethylamino)-3-nitrophenyl)-5-methyl-4,5-dihydropyridazin-3(2H)-one], at PDE3A and SLFN12, the “PDE3A and SLFN12 complex formation” value was “induced”; the “complex formation of V5-tagged SIRT7 and SLFN12 with PDE3A” value was “enhanced”. Moreover, at PDE3A(677-1141), the “Tm (° C.)” value amounted to 58.4 ± 0.0 °C and the ΔTm at 100 µM is 6 °C. Moreover, on PDE3A, the “enrichment of SIRT7 and SLFN12 in PDE3A immunoprecipitates” value is recorded as “specifically enriched”.
Consider `COc1cc2c(cc1OC)-c1c/c(=N\c3c(C)cc(C)cc3C)n(C)c(=O)n1CC2` [trequinsin, 9,10-dimethoxy-3-methyl-2-(2,4,6-trimethylphenyl)imino-6,7-dihydropyrimido[6,1-a]isoquinolin-4-one], for which, on PDE3A and SLFN12, the “PDE3A and SLFN12 complex formation” value is recorded as “not”; the “complex formation of V5-tagged SIRT7 and SLFN12 with PDE3A” value is “not”. At PDE3A(677-1141), the “Tm (° C.)” value stood at 66.2 ± 0.0 °C and the ΔTm at 100 µM worked out at 14.2 °C. The “enrichment of SIRT7 and SLFN12 in PDE3A immunoprecipitates” value on PDE3A is “not observed”.

As usually defined, the ΔTm is the change in melting temperature against a reference sample.
